Data as given in patent US20200068890A1 (Person to Whom the Inventor is Obligated to Assign, priority 2017, published 2020).
pIC50: −log10 of the molar value. Each block holds one compound with its values, some of them ahead of it.

Key:
A. thaliana DHDPS = tested on: T1, A. thaliana DHDPS; test: DHDPS-DHDPR coupled assay, dose response inhibitor assay; format: biochemical, Arabidopsis thaliana
T1 construct: AtDHDPS|10|0.00008; no borders, domain or tags given
Method: DHDPS enzyme activity was determined using the coupled assay in a Cary 4000 UV/Vis spectrophotometer at 340 nm in 1 cm acrylic cuvettes. A master mix was prepared for each reaction as per Table 1. Reaction mixtures containing enzymes, pyruvate, buffer and NADPH were incubated at 30° C. for 12 mins before the addition of ASA to initiate the reaction. The oxidation of NADPH to NADP^+ was then monitored at 340 nm at 30° C. as a function of time. The initial rate (ΔA340·min^−1) was calculated from the slope of the linear portion of the A340 versus time profile. All experiments were carried out in triplicate. The enzyme kinetic parameters, including KM values, were determined using the Michaelis-Menten equation (Equation 1). Unless otherwise stated, all kinetic data were fitted using the built-in equations in GraphPad Prism.
To determine/C50 values for the inhibitors, A. thaliana DHDPS enzyme activity was measured using the coupled assay (detailed above) in the presence of increasing concentrations of inhibitor. The initial rate was then plotted as a function of the log 10 of the inhibitor concentration and the/C50 determined according to Equation 2.

[1] = tested on: human liver cells (HepG2); test: MTT viability assay; settings: for % viability 1 / % viability 2 / % viability 3: 48 hrs
Method: (§1) Cells were harvested and resuspended in growth media (5-10 ml) to count. Cells were diluted to the appropriate concentration (5×10^3), and seeded into 96-well plates as follows: (a) 50 μl of cells per well, (b) 100 μl of growth media in the Blank wells, (c) 100 μl PBS in outer wells (to prevent dehydration of media from the cells). Cells were incubated overnight at 37° C. (5% CO2).
(§2) Compounds were prepared as serial dilutions in growth media. Each treatment concentration was performed in triplicate. 50 μl/well of prepared compound was added to cells.
(§3) A no treatment triplicate (100% viability) was also included by adding 50 μl of growth media to cells. Plates were returned to the incubator for 48 hrs.
(§4) MTT powder in 1×PBS was prepared at 5 mg/ml and filter sterilised. MTT was added to serum-free media to a final concentration of 1 mg/ml. 100 μl of the MTT solution (1 mg/ml) was added to each well, including 0 μM and blank wells. Plates were incubated at 37° C. in incubator for 3 hrs. Following incubation, the media was removed from wells without disrupting the purple crystals formed. 100 μl of DMSO was added to each well using a multichannel pipette. The plates were shaken on the plate shaker until all the crystals have dissolved. The absorbance was measured at 570 nm using a plate reader. The data was analysed using Microsoft Excel. For each treatment concentration the average was calculated, the blank was subtracted and the cell viability was determined as a percentage of the no treatment control (DMSO vehicle control).

[2] = tested on: human kidney cells (HEK293); test: MTT viability assay; settings: for % Viability Remaining 1 / % Viability Remaining 2 / % Viability Remaining 3: 48 hrs
Method: as §1, §2, §3, §4

SMILES: O=C(O)CN1C(=O)S/C(=C\c2cccc(Cl)c2)C1=O [Compound 7, (Z)-2-(5-(3-Chlorobenzylidene)-2,4-dioxothiazolidin-3-yl)acetic Acid]
pIC50 (A. thaliana DHDPS): 3.92

SMILES: O=C(O)CN1C(=O)S/C(=C\c2ccccc2Cl)C1=O [Compound 6, (Z)-2-(5-(2-Chlorobenzylidene)-2,4-dioxothiazolidin-3-yl)acetic Acid]
pIC50 (A. thaliana DHDPS): 3.86

SMILES: O=C(O)CN1C(=O)S/C(=C\c2cccc3ccccc23)C1=O [Compound 38, (Z)-2-(5-(Naphthalen-1-ylmethylene)-2,4-dioxothiazolidin-3-yl)acetic Acid]
pIC50 (A. thaliana DHDPS): 4.01

SMILES: O=C(O)CN1C(=O)S/C(=C\c2ccc3ccccc3n2)C1=O [Compound 40, 2-(2,4-Dioxo-5-(quinolin-2-ylmethylene)thiazolidin-3-yl)acetic Acid]
pIC50 (A. thaliana DHDPS): 3.96

SMILES: COc1ccc(/C=C2\SC(=O)N(CC(=O)O)C2=O)cc1OC [Compound 23, 2-(5-(3,4-Dimethoxybenzylidene)-2,4-dioxothiazolidin-3-yl)acetic Acid]
pIC50 (A. thaliana DHDPS): 3.94

Continued, in another order:

pIC50 (A. thaliana DHDPS): < 3.30
SMILES: CN(C)c1ccc(/C=C2\SC(=O)N(CC(=O)O)C2=O)cc1 [Compound 33, (Z)-2-(5-(4-(Dimethylamino)benzylidene)-2,4-dioxothiazolidin-3-yl)acetic Acid]

pIC50 (A. thaliana DHDPS): 4.18
SMILES: COc1ccc(/C=C2\NC(=O)N(CC(=O)O)C2=O)cc1 [Compound 42, (Z)-2-(4-(4-Methoxybenzylidene)-2,5-dioxoimidazolidin-1-yl)acetic Acid]
% viability 1 ([1]; HepG2, 12.5 μM): 81.0%
% viability 2 ([1]; HepG2, 12.5 μM): 99.1%
% viability 3 ([1]; HepG2, 12.5 μM): 70.9%
% viability 1 ([1]; HepG2, 25 μM): 81.0%
% viability 2 ([1]; HepG2, 25 μM): 99.1%
% viability 3 ([1]; HepG2, 25 μM): 70.9%
% viability 1 ([1]; HepG2, 50 μM): 88.8%
% viability 2 ([1]; HepG2, 50 μM): 98.3%
% viability 3 ([1]; HepG2, 50 μM): 90.4%
% viability 1 ([1]; HepG2, 100 μM): 88.0%
% viability 2 ([1]; HepG2, 100 μM): 86.0%
% viability 3 ([1]; HepG2, 100 μM): 84.1%
% viability 1 ([1]; HepG2, 200 μM): 98.4%
% viability 2 ([1]; HepG2, 200 μM): 101%
% viability 3 ([1]; HepG2, 200 μM): 82.4%
% viability 1 ([1]; HepG2, 400 μM): 80.9%
% viability 2 ([1]; HepG2, 400 μM): 82.9%
% viability 3 ([1]; HepG2, 400 μM): 82.1%
toxicity to HepG2 cells (in words) ([1]; HepG2, MTT, up to 400 μM (Defensin 100 μM)): effectively nontoxic
% Viability Remaining 1 ([2]; HEK293, 12.5 μM): 104%
% Viability Remaining 2 ([2]; HEK293, 12.5 μM): 93.9%
% Viability Remaining 3 ([2]; HEK293, 12.5 μM): 87.6%
% Viability Remaining 1 ([2]; HEK293, 25 μM): 110%
% Viability Remaining 2 ([2]; HEK293, 25 μM): 93.9%
% Viability Remaining 3 ([2]; HEK293, 25 μM): 87.6%
% Viability Remaining 1 ([2]; HEK293, 50 μM): 80.6%
% Viability Remaining 2 ([2]; HEK293, 50 μM): 94.5%
% Viability Remaining 3 ([2]; HEK293, 50 μM): 98.9%
% Viability Remaining 1 ([2]; HEK293, 100 μM): 110%
% Viability Remaining 2 ([2]; HEK293, 100 μM): 107%
% Viability Remaining 3 ([2]; HEK293, 100 μM): 115%
% Viability Remaining 1 ([2]; HEK293, 200 μM): 94.0%
% Viability Remaining 2 ([2]; HEK293, 200 μM): 99.6%
% Viability Remaining 3 ([2]; HEK293, 200 μM): 94.1%
% Viability Remaining 1 ([2]; HEK293, 400 μM): 105%
% Viability Remaining 2 ([2]; HEK293, 400 μM): 103%
% Viability Remaining 3 ([2]; HEK293, 400 μM): 80.9%
toxicity to HEK293 cells (in words) ([2]; HEK293, MTT, up to 400 μM (Defensin 100 μM)): effectively nontoxic

pIC50 (A. thaliana DHDPS): < 3.60
SMILES: COc1ccc(/C=C2\SC(=S)NC2=O)cc1 [Compound 46, (Z)-5-(4-Methoxybenzylidene)-2-thioxothiazolidin-4-one]

pIC50 (A. thaliana DHDPS): 4.16
SMILES: O=C(O)CN1C(=O)S/C(=C\c2ccc(C(=O)O)cc2)C1=O [Compound 25, (Z)-4-((3-(Carboxymethyl)-2,4-dioxothiazolidin-5-ylidene)methyl)benzoic Acid]

pIC50 (A. thaliana DHDPS): 3.82
SMILES: Nc1ccc(/C=C2\SC(=O)N(CC(=O)O)C2=O)cc1 [Compound 11, (Z)-2-(5-(4-Aminobenzylidene)-2,4-dioxothiazolidin-3-yl)acetic Acid]

pIC50 (A. thaliana DHDPS): 3.90
SMILES: CSc1ccc(/C=C2\SC(=O)N(CC(=O)O)C2=O)cc1 [Compound 28, (Z)-2-(5-(4-(Methylthio)benzylidene)-2,4-dioxothiazolidin-3-yl)acetic Acid]

pIC50 (A. thaliana DHDPS): 4.10
SMILES: Cc1ccc(/C=C2\SC(=O)N(CC(=O)O)C2=O)cc1 [Compound 10, (Z)-2-(5-(4-Methylbenzylidene)-2,4-dioxothiazolidin-3-yl)acetic Acid]
